Assay results taken from EPA's ToxValDB 9.5.

Key:
Rattus norvegicus [1] = conditions: oral
Canidae = conditions: for NOAEL: subchronic, duration: 90 days, Beagle
Rattus norvegicus [2] = tested on: Rattus norvegicus
Rattus norvegicus [3] = conditions: M/F
Rattus norvegicus [4] = conditions: oral; remark: listed apart in the source
Rattus norvegicus [5] = conditions: subchronic; duration: 42 days; oral; gavage; CD(SD)
Mus musculus = conditions: for LD50: acute
Rattus norvegicus [6] = conditions: oral, gavage, M/F, Crl:CD(SD), During lactation periods f1 & f2: increased pup mortality, decreased pup viability & bodyweight, decreased lactation index, increased …
Rattus norvegicus [7] = conditions: chronic; duration: 26 weeks; oral; diet; Liver: Altered weight
Rattus norvegicus [8] = conditions: developmental, oral, M
[9] = subchronic, M/F, liver and kidney pathology
[10] = developmental, M/F, increased retinal folds in weanlings, reduced viability and lactation indices, reduced pup body weight, increased dead pups at birth
[11] = chronic, duration: 6 months, diet, M, increased liver-to-body weight and liver-to-brain weight ratios

O=C1[O][Sb-]23[O]C(=O)C([O]2)C2[O][Sb-]4([O]C(=O)C([O]4)C1[O]3)[O]C2=O.[K+].[K+]
LOAEL (Rattus norvegicus [1]; chronic, duration: 2 years, drinking water, M/F, Long-Evans, Whole Body Effects): 0.35 mg/kg-day

CC(C)(C)c1cc(Cn2c(=O)n(Cc3cc(C(C)(C)C)c(O)c(C(C)(C)C)c3)c(=O)n(Cc3cc(C(C)(C)C)c(O)c(C(C)(C)C)c3)c2=O)cc(C(C)(C)C)c1O
NOAEL (Canidae; oral, diet): 370 mg/kg-day
NOAEL (Canidae; oral, diet, F): 370 mg/kg-day
NOAEL (Canidae; oral, diet, M): 370 mg/kg-day
LD50 (Rattus norvegicus [2]; acute, dermal): > 2000 mg/kg
LD50 (Rattus norvegicus [2]; acute, dermal, Albino rats / Tif: RAI f (SPF)): > 2000 mg/kg
LD50 (Rattus norvegicus [2]; acute, oral, gavage, Tif : Raif (SPF), F3 - hybrid of RII 1/ Tif x RII 2/ Tif): > 5000 mg/kg
NOAEL (Rattus norvegicus [2]; chronic, duration: 92 days, oral, diet, F, Tif: RAIf (SPF), hybrids of RII/1 x RII/2): 62.4 mg/kg-day
NOAEL (Rattus norvegicus [2]; chronic, duration: 92 days, oral, diet, M, Tif: RAIf (SPF), hybrids of RII/1 x RII/2): 234 mg/kg-day
NOAEC (Rattus norvegicus [2]; subchronic, duration: 90 days, oral, diet, Albino Rats / Charles River strain): 960 mg/kg-day

CC(O)CO (centres undefined) [1,2-Propylene glycol]
LOAEL (Rattus norvegicus [1]; subchronic, duration: 5 weeks, drinking water, M, Wistar, Hematologic): 5200 mg/kg-day
LOAEL (Rattus norvegicus [3]; subchronic, duration: 13 weeks, inhalation, nose only, Sprague-Dawley, respiratory): 159 mg/m3

Oc1cc(Cl)c(Cl)cc1Cl [2,4,5-Trichlorophenol]
NOAEL (Rattus norvegicus [1]; chronic, duration: 98 days, diet, M/F, Wistar, Hepatic, Urinary): 100 mg/kg-day
LOAEL (Rattus norvegicus [4]; [9]): 300 mg/kg-day
NOEL (Rattus norvegicus [4]; [9]): 100 mg/kg-day
NOAEL (Rattus norvegicus [3]; chronic, duration: 98 days, oral, diet, Wistar, hepatic, renal): 100 mg/kg-day

OCCCl [2-Chloroethanol]
NOAEL (Rattus norvegicus [1]; chronic, duration: 18 weeks, diet, M/F, FDRL, Whole Body Effects): 45 mg/kg-day

Cc1ccccc1N [2-Methylaniline]
LOAEL (Rattus norvegicus [1]; subchronic, duration: 13 weeks, diet, M, Fischer 344): 301 mg/kg-day

O=C(c1ccc(Cl)cc1)c1ccc(Cl)cc1 [4,4'-Dichlorobenzophenone]
NOAEL (Rattus norvegicus [1]; subchronic, duration: 90 days, diet, M, Wistar): 86 mg/kg-day

CCCCCCCCCCCCCCCCCC(=O)OC[C@@H](O)[C@H]1OC[C@H](O)[C@H]1O [Anhydrosorbitol stearate]
NOEL (Rattus norvegicus [5]): 1000 mg/kg-day
NOAEL (% diet) (Canidae; chronic, duration: 20 months, dermal, Dog Other): 5
LOAEL (Canidae; chronic, duration: 21 months, oral, diet, Mongrel or Irish terrier): 485 mg/kg-day
LD50 (Rattus norvegicus [2]; acute, oral, gavage, Wistar): > 15900 mg/kg
NOAEL (% diet) (Rattus norvegicus [2]; reproduction developmental, duration: 2 years, oral, diet): 5
NOAEL (% diet) (Mus musculus; chronic, duration: 80 weeks, dermal, (TO)): 0.5

CC[C@H](C)[C@H]1O[C@]2(C=C[C@@H]1C)C[C@@H]1C[C@@H](C/C=C(\C)[C@@H](O[C@H]3C[C@H](OC)[C@@H](O[C@H]4C[C@H](OC)[C@@H](O)[C@H](C)O4)[C@H](C)O3)[C@@H](C)/C=C/C=C3\CO[C@@H]4[C@H](O)C(C)=C[C@@H](C(=O)O1)[C@]34O)O2 [Avermectin B1a]
LEL (Rattus norvegicus [4]; [10]): 0.4 mg/kg-day
NOEL (Rattus norvegicus [4]; [10]): 0.12 mg/kg-day
LOAEL (Rattus norvegicus [6]; developmental): 0.4 mg/kg-day
NOAEL (Rattus norvegicus [6]; developmental): 0.12 mg/kg-day
LOAEL (Rattus norvegicus [6]; two-generation): 0.4 mg/kg-day
NOAEL (Rattus norvegicus [6]; two-generation): 0.12 mg/kg-day

CCCCOC(=O)c1ccccc1C(=O)OCc1ccccc1 [Benzyl butyl phthalate]
NOAEL (Canidae; oral): 500 mg/kg-day
LC50 (Rattus norvegicus [2]; acute, inhalation): > 6.7 µg/mL
LD50 (Rattus norvegicus [2]; acute, injection, Intraperitoneal): 2660 mg/kg
NOAEL (Rattus norvegicus [2]; chronic, duration: 182 days, oral, diet, Fischer 344): 470 mg/kg-day
LOAEL (Rattus norvegicus [2]; chronic, duration: 365 days, oral, diet, F, Fischer 344): 360 mg/kg-day
NOAEL (Rattus norvegicus [2]; reproduction developmental, duration: 26 weeks, oral, diet, Fischer 344, generation: F0): 498 mg/kg-day
NOAEL (Rattus norvegicus [2]; reproduction developmental, duration: 26 weeks, oral, diet, Fischer 344, generation: F1): 168 mg/kg-day
NOAEL (Rattus norvegicus [2]; reproduction developmental, duration: 26 weeks, oral, diet, M, Fischer 344): 168 mg/kg-day
NOAEL (Rattus norvegicus [2]; reproduction developmental, duration: 8 days, oral, gavage, F, Wistar): 500 mg/kg-day
NOAEL (Rattus norvegicus [2]; reproduction developmental, duration: 8 days, oral, gavage, Wistar, generation: F1): 500 mg/kg-day
NOAEL (Rattus norvegicus [2]; reproduction developmental, duration: 10 days, oral, diet, F, Sprague-Dawley): 420 mg/kg-day
NOAEL (Rattus norvegicus [2]; reproduction developmental, duration: 10 days, oral, diet, Sprague-Dawley, generation: F1): 1100 mg/kg-day
NOAEL (Rattus norvegicus [2]; reproduction developmental, duration: 14 days, oral, diet, Fischer 344, generation: F0): 750 mg/kg-day
NOAEL (Rattus norvegicus [2]; reproduction developmental, duration: 20 days, oral, diet, Wistar, generation: F1): > 1020 mg/kg-day
NOAEL (Rattus norvegicus [2]; reproduction developmental, duration: 21 days, oral, diet, Fischer 344, generation: F0): ≤ 679 mg/kg-day
NOAEL (Rattus norvegicus [2]; reproduction developmental, oral, diet, F, Wistar): < 631 mg/kg-day
NOAEL (Rattus norvegicus [2]; reproduction developmental, oral, diet, Wistar, generation: F0): 206 mg/kg-day
NOAEL (Rattus norvegicus [2]; short-term, duration: 14 days, oral, gavage, Sprague-Dawley): 160 mg/kg-day
NOAEL (Rattus norvegicus [2]; short-term, duration: 14 days, oral, gavage, Wistar): 480 mg/kg-day
LOAEL (Rattus norvegicus [2]; short-term, duration: 21 days, oral, diet, Fischer 344): 639 mg/kg-day
LOAEL (Rattus norvegicus [2]; short-term, duration: 28 days, oral, diet, Fischer 344): 540 mg/kg-day
NOAEL (Rattus norvegicus [2]; short-term, duration: 28 days, oral, diet, Sprague-Dawley): 1000 mg/kg-day
NOAEL (Rattus norvegicus [2]; subchronic, duration: 42 days, oral, diet, Sprague-Dawley): 500 mg/kg-day
NOAEL (Rattus norvegicus [2]; subchronic, duration: 90 days, inhalation, Sprague-Dawley): 0.218 mg/L
NOAEL (Rattus norvegicus [2]; subchronic, duration: 90 days, oral, diet, Sprague-Dawley): 375 mg/kg-day
NOAEL (Rattus norvegicus [2]; subchronic, duration: 90 days, oral, diet, Wistar): 151 mg/kg-day
LD50 (Oryctolagus sp.; acute, dermal): > 10000 mg/kg
NOAEL (Oryctolagus sp.; reproduction developmental, duration: 12 days, oral, F, New Zealand): 10 mg/kg-day
LD50 (Mus musculus; injection, Intraperitoneal, Swiss-Webster): 3160 mg/kg
LD50 (Mus musculus; oral): 4170 mg/kg
NOAEL (Mus musculus; short-term, duration: 14 days, oral, diet, B6C3F1): > 5250 mg/kg-day
LOAEL (Rattus norvegicus [4]; [11]): 470 mg/kg-day
NOAEL (Rattus norvegicus [4]; [11]): 159 mg/kg-day
NOAEL (Rattus norvegicus [7]): 159 mg/kg-day
NOEL (Rattus norvegicus [8]; Albino, generation: F1, F1: AGD (units not specified)): 100 mg/kg-day
LOEL (Rattus norvegicus [8]; drinking water, Wistar Alpk, generation: F1, F1: AGD (mm)): 0.18 mg/kg-day
NOEL (Rattus norvegicus [8]; gavage, Crj:CD, generation: F1, F1: AGD (mm) + F1: AGD (mm/cube root BW)): 400 mg/kg-day
LOEL (Rattus norvegicus [8]; gavage, Crj:CD, generation: F2, F2: AGD (mm)): 100 mg/kg-day
